# How the values were obtained:
# [1] = test system: acetaminophen-induced hepatotoxicity; assay: Protective effect against acetaminophen overdose in rats (serum GPT, LDH, liver damage); format: in vivo, rat (male Fisher 344)
# Experimental: Brady et al., "Effect of […] […] Biochem. […] Extent of tissue damage was determined using a […]-6 Image Analysis System (Advanced Imaging Concepts, Inc.). […] All determinations were made without knowledge of treatment group. […] All experiments were replicated at least once.
# [2] = test system: p-nitrophenol hydroxylase; settings: isolated rat liver microsomes; cited from earlier work
# [3] = test system: 1,2-dimethylhydrazine-induced hepatotoxicity and carcinogenesis; settings: rats; cited from earlier work
# P-450 2E1 [4] = settings: treatment of rats; cited from earlier work
# [5] = test system: carbon tetrachloride hepatotoxicity; settings: cited from earlier work
# P-450 2E1 [6] = settings: isolated rat liver microsomes; cited from earlier work
# [7] = test system: hepatotoxicity of N-nitrosodimethylamine; settings: pre-treatment of rats; cited from earlier work
# [8] = test system: acetaminophen-induced hepatotoxicity; assay: animal or person; settings: for GPT / LDH / Survival / Extent of liver damage: 25 mg/kg oral
# Excerpt: Blood samples were obtained from the jugular vein of CO2 -anesthetizedanimals. The blood was allowed to clot at room temperature and serum was separated by centrifugation. […] Biochem. Biophys.
# Randomly-selected samples of the major hepatic lobe were fixed in 10% buffered formalin for histological evaluation. Samples were subsequently embedded in Paraplast (Fisher Scientific) and sectioned at 6 μm on a rotary microtome. Tissue sections were stained with hematoxylin-eosine-phloxine for examination. Extent of tissue damage was determined using a Presage CV-6 Image Analysis System (Advanced Imaging Concepts, Inc.). Images of randomly-selected slides (3 slides/animal, 2-3 animals/group) containing full cross sections of the major hepatic lobe were projected onto a computer screen and the image captured. The areas of damage were then outlined on the screen and the areas quantated using interactive software. The area of damage was shown as a percentage of the total hepatic area for each section. All determinations were made without knowledge of treatment group.
# Data were analyzed by the Newman-Keuls multiple comparison procedure on the rank score analysis.
# All experiments were replicated at least once.
# As a Comparative Example, 300 mg/kg N-acetylcysteine was also administered immediately after administration of 0.2 g/kg acetaminophen.
# As a Comparative Example, 300 mg/kg N-acetylcysteine was also administered 1 hour after administration of 0.2 g/kg acetaminophen.
# [9] = 50 mg/kg oral, 1 hour after APAP 0.4 g/kg, mean ± SD of five rats
# [10] = immediately (0 min) after APAP 0.2 g/kg
smiles,measurement,setting,value
"C=CCSCC=C [DAS, diallyl sulfide]",Extent of liver damage,"[1]; 50 mg/kg oral, 1 hour after APAP 0.4 g/kg",5-13%
same,GPT,[1]; [9],70 ± 13 U/L
same,LDH,[1]; [9],220 ± 82 U/L
same,protection against hepatotoxicity,"[1]; 50 mg/kg, 1 hr after APAP, rats","prevented the elevation of serum GPT and LDH levels, but did not completely prevent liver damage"
same,minimal effective dose,"[1]; Rattus norvegicus, rats, read-out: low dose at which protective effect was demonstrated",5 mg/kg
same,inhibition of p-nitrophenol hydroxylase,[2],competitively
same,"protection against 1,2-dimethylhydrazine-induced hepatotoxicity and carcinogenesis",[3],protect toxicity
same,liver microsomal P-450 2E1-dependent (NDMA demethylase) activity,P-450 2E1 [4],decreased
same,inhibition of hepatotoxicity of CCl4,[5]; pre-treatment of rats,inhibited the hepatotoxicity
same,protection against carbon tetrachloride hepatotoxicity,"[5]; rat, in vivo",protect toxicity associated with carbon tetrachloride hepatotoxicity
same,inhibition of P-450 2E1-catalyzed NDMA demethylase,P-450 2E1 [6],competitively
same,inhibition of hepatotoxicity of N-nitrosodimethylamine,[7],inhibited the hepatotoxicity
same,GPT,[8]; 20 min after APAP 0.2 g/kg,158 ± 41 U/L
same,LDH,[8]; 20 min after APAP 0.2 g/kg,2374 ± 3533 U/L
same,Survival,[8]; 20 min after APAP 0.2 g/kg,5/5
same,Extent of liver damage,[8]; 1 hour after APAP 0.2 g/kg,16-39%
same,GPT,[8]; 1 hour after APAP 0.2 g/kg,179 ± 2 U/L
same,LDH,[8]; 1 hour after APAP 0.2 g/kg,15609 ± 7143 U/L
same,Survival,[8]; 1 hour after APAP 0.2 g/kg,3/5
same,Extent of liver damage,[8]; [10],8-17%
same,GPT,[8]; [10],143 ± 50 U/L
same,LDH,[8]; [10],1899 ± 1724 U/L
same,Survival,[8]; [10],5/5
same,protection against acetaminophen toxicity,"[8]; 25 mg/kg, immediately after acetaminophen, mice","although preventing the elevation of the LDH level, only partially prevented liver damage and had little or no effect on the elevated serum GPT level"
same,minimal effective dose,"[8]; Mus musculus, read-out: low dose at which protective effect was demonstrated",5 mg/kg

# Reference: patent US5474757A, “Prevention of acetaminophen overdose toxicity with organosulfur compounds” (priority 1992, dated 1995)
